This is an account of results in patent US12344618B2, “Heterotricyclic derivative compound and use of same” (HANMI PHARMACEUTICAL CO., LTD., priority 2019, dated 2025).

In general, GI50 refers to the concentration that inhibits growth by half. What is called IC50 is the concentration that gives 50% inhibition. Low values mean inhibition by little substance, high ones a need for much substance.

For series [1], the system named is KARPAS-422 (EZH2 Y641N mutation). Put plainly: Cell growth inhibition test, KARPAS-422. In kind it is cell-based. The note with it: KARPAS-422, culture time 7 days, read-out: Cell growth inhibitory activity (GI50, nM) KARPAS-422 (EZH2 Y641N mutation). The procedure: Each type of the cultured cells was seeded in 6-well plates or 48-96 well plates, and subculture or medium replacement was performed every 3 to 4 days. Next, the cells were subcultured for a total of 7 to 14 days, and then seeded in 96-well plates. 3 to 5 days before the measurement of the effect, the cells were seeded in 96-well plates, and then the absorbance (Tz) on the day of seeding was measured. The absorbance after the reaction was measured by the plate reader device Synergy NeoAlpha (Biotek) using Cell-Titer-Glo Cell Viability Assay (Promega, G7573) according to the attached manual. Based on the absorbance (Tz) measured on the seeding day and the absorbance of each of the DMSO-treated group (C) and the sample-added group (Ti) measured on the day of effect determination, the percentage of cell proliferation inhibition was calculated according to the following Equation 1. [(Ti−Tz)/(C−Tz)]×100 for concentrations for which Ti≥Tz […] for concentrations for which Ti<Tz. [Equation 1]

The target in another series is T1, EZH1 (Homo sapiens, UniProt Q92800).
T1 construct: purchased Reaction Biology Corp. (contract assay)
T1 sequence (Q92800 whole entry): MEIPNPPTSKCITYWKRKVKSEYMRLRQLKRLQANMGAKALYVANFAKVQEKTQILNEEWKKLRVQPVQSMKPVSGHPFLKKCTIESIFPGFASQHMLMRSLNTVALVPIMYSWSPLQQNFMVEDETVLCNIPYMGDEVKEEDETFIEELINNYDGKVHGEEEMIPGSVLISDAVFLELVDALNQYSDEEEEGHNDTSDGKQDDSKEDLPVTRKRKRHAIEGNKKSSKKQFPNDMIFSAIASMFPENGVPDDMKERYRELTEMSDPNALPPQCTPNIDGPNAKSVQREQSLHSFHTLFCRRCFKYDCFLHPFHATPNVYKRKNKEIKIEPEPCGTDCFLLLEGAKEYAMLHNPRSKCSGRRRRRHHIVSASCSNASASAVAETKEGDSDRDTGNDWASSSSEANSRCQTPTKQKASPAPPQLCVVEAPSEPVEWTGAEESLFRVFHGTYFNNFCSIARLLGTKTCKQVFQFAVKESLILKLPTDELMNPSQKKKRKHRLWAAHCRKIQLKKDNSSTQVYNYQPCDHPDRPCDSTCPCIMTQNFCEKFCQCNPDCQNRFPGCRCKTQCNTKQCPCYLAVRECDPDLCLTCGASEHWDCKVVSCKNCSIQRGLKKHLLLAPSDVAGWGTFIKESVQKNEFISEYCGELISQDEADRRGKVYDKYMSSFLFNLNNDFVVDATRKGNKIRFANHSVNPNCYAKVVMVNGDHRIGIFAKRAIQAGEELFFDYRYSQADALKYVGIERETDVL
T1 sequence (O75530 whole entry partner): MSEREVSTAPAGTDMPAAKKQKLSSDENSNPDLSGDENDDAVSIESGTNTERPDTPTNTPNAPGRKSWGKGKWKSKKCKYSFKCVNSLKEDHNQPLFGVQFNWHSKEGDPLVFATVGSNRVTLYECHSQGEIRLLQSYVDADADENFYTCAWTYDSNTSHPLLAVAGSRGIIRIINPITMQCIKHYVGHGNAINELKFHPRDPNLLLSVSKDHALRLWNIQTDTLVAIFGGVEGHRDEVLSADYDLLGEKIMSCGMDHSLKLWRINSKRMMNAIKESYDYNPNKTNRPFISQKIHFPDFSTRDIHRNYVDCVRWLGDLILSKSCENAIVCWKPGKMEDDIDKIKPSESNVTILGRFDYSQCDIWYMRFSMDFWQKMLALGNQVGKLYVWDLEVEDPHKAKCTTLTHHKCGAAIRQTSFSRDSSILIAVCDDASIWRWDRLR
T1 sequence (Q15022 whole entry partner): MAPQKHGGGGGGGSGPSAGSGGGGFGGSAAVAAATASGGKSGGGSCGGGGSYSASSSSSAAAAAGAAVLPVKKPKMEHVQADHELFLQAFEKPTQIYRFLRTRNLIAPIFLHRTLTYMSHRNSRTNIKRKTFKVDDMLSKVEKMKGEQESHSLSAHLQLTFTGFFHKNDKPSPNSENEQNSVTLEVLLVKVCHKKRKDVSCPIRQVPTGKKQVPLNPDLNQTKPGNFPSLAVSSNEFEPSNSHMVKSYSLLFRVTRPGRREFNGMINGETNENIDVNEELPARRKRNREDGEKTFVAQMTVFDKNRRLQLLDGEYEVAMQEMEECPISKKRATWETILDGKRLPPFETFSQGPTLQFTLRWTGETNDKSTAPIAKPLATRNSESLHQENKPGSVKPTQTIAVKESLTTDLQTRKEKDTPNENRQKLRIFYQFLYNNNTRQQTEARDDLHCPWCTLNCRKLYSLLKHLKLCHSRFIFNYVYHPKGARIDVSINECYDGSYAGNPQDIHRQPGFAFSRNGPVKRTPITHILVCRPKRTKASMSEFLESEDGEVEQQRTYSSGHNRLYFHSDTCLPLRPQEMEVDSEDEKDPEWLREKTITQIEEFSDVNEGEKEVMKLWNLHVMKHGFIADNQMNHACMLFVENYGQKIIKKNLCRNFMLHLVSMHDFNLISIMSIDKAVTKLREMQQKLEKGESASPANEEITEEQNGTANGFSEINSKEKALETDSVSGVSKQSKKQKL
T1 sequence (Q09028 whole entry partner): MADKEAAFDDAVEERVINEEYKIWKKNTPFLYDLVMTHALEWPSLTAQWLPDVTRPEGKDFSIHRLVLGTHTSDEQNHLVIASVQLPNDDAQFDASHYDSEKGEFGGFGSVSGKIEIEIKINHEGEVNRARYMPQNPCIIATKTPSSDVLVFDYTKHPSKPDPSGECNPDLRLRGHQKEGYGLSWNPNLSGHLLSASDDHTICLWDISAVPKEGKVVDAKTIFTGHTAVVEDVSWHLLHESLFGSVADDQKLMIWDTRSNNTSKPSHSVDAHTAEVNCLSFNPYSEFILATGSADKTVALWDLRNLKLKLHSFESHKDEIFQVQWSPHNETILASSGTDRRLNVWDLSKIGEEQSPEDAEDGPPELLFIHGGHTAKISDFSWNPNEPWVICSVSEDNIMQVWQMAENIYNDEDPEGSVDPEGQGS
T1 sequence (Q6ZN18 whole entry partner): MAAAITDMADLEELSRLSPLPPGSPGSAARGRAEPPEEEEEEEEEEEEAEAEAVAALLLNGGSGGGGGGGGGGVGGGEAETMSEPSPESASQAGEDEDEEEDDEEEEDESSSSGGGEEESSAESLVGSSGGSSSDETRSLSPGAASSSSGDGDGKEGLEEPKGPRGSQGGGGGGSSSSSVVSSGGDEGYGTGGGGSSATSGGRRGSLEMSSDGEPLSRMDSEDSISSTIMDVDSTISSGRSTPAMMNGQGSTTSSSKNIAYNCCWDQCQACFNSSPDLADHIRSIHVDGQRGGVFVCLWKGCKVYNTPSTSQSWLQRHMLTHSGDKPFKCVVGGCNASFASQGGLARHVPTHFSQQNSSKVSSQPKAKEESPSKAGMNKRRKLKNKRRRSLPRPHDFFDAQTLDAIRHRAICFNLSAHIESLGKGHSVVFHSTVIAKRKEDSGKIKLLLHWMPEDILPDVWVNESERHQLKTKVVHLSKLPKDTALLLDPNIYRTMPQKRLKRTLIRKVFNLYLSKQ
As to the kind of experiment: Inhibitory activity against EZH1 methyltransferase (radiometric scintillation proximity assay).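 Also: Read-out is methylation of a substrate peptide, captured on streptavidin-coated SPA beads and counted by scintillation, in Tris-HCl buffer at pH 8.0 with 1% DMSO.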 The series is classed as biochemical. Conditions: 2.3 nmol/L enzyme, 90 minutes, room temperature. In general terms: In a scintillation proximity assay essentially only radioactivity close to the scintillant gives light.

Series [2] in a line: Metabolic stability in mouse liver microsomes. The note with it: 5 μM compound, 1 mg/mL mouse liver microsomes, 37° C., NADPH regenerating system. The series is classed as in vitro ADME. As for the experimental part:
(§1) In order to confirm the metabolic stability of the synthetic compounds in the liver, 5 μM test compound and 1 mg/mL human, dog, rat or mouse liver microsomes were allowed to react with each other at 37° C. in the presence of the NADPH regenerating system for 1 hour. After 1 hour, the reaction was terminated and the supernatant obtained by centrifugation was analyzed by HPLC. With the peak value obtained as the analysis result, the residual amount (%) was calculated using the following equation through the peak value of the test compound after 1 hour of the reaction versus the peak value of the test compound at 0 min. Residual amount (%)=(peak value of test compound after 1 hour of reaction/peak value of test compound at 0 min)×100

Another series addresses EZH2 (Homo sapiens, UniProt Q15910). Put plainly: Inhibitory activity against EZH2 methyltransferase (radiometric scintillation proximity assay).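 Also: Read-out is substrate peptide methylation, captured on streptavidin-coated SPA beads and counted by scintillation, with the reaction run in Tris-HCl buffer at pH 8.0 containing 1% DMSO.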 The note with it: Enzyme inhibitory activity (IC50, nM) EZH2, 2.3 nmol/L enzyme, 90 minutes, room temperature.
Series [3] in a line: Metabolic stability in human liver microsomes. The series is classed as in vitro ADME. Conditions: 5 μM compound, 1 mg/mL human liver microsomes, 37° C., NADPH regenerating system. As for the experimental part: as §1
For orientation: Liver microsomes are vesicles of endoplasmic reticulum, rich in cytochrome P450 enzymes.

[4] abbreviates: Homo sapiens, KARPAS-422, 168 h.

Read-outs that look alike come from different tables or passages of the source. A value given as a limit tells only on which side of the number the result lay.

Sequence of EZH2 (Q15910 whole entry): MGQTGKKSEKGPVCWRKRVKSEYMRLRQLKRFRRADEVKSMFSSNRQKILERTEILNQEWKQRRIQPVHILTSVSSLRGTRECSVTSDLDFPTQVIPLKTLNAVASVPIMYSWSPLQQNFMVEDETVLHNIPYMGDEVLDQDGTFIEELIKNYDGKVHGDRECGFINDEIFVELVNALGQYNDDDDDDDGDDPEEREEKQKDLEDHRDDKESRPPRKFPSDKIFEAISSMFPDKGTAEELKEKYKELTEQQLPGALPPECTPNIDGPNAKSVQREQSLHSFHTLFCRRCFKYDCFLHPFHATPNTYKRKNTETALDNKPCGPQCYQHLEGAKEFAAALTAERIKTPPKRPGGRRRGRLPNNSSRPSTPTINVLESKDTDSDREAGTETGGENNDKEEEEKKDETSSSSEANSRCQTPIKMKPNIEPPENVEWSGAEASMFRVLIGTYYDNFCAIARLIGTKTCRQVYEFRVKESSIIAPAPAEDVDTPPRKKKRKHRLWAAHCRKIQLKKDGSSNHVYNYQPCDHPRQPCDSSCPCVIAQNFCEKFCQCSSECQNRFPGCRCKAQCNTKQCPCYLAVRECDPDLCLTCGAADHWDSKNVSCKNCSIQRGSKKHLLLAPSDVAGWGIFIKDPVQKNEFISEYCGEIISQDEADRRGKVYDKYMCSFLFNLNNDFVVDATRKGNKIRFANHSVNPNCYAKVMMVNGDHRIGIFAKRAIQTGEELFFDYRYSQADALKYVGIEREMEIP
Sequence of EZH2 (O75530 whole entry partner): as the sequence (O75530 whole entry partner) above
Sequence of EZH2 (Q15022 whole entry partner): as the sequence (Q15022 whole entry partner) above
Sequence of EZH2 (Q09028 whole entry partner): as the sequence (Q09028 whole entry partner) above
Sequence of EZH2 (Q6ZN18 whole entry partner): as the sequence (Q6ZN18 whole entry partner) above

As for `Cc1cc(C)c(CN2CCc3c(C)c4c(c(Cl)c3C2=O)OC(C)([C@H]2CC[C@H](N(C)C)CC2)O4)c(=O)[nH]1` (single isomer, unassigned) [Compound 5, 4-chloro-6-((4,6-dimethyl-2-oxo-1,2-dihydropyridin-3-yl)methyl)-2-(trans-4-(dimethylamino)cyclohexyl)-2,9-dimethyl-7,8-dihydro-[1,3]dioxolo[4,5-g]isoquinolin-5(6H)-one], the GI50 in series [1] worked out at 2.4 nM. The concentration for half-maximal inhibition (IC50) was 16 nM against EZH1 and 1.3 nM on EZH2. In addition, the “Residual amount (%) of test compound after 1 hour of reaction, Mouse” value (“Residual amount (%) of test compound … Mouse” below) in series [2] stood at 78%. Further, the “Residual amount (%) of test compound after 1 hour of reaction, Human” value (shortened to “Residual amount (%) of test compound … Human”) in series [3] is on record as 89%.

In the case of `Cc1cc(C)c(CN2CCc3c(Cl)c4c(c(C)c3C2=O)OC(C)([C@H]2CC[C@H](N(C)C)CC2)O4)c(=O)[nH]1` (single isomer, unassigned) [Compound 11, 9-chloro-6-((4,6-dimethyl-2-oxo-1,2-dihydropyridin-3-yl)methyl)-2-(trans-4-(dimethylamino)cyclohexyl)-2,4-dimethyl-7,8-dihydro-[1,3]dioxolo[4,5-g]isoquinolin-5(6H)-one], the GI50 in series [1] was no less than 563 nM. In addition, the IC50 is greater than 1000 nM against EZH1 and 116 to 473 nM at EZH2. For the same molecule, in series [2], the “Residual amount (%) of test compound … Mouse” value stood at 70%. For the same molecule, the “Residual amount (%) of test compound … Human” value in series [3] is 37%.

In the case of `Cc1cc(C)c(CN2CCc3c(C)c4c(c(C)c3C2=O)OC(C)([C@H]2CC[C@H](N(C)C)CC2)O4)c(=O)[nH]1` (single isomer, unassigned) [Compound 41, 6-((4,6-dimethyl-2-oxo-1,2-dihydropyridin-3-yl)methyl)-2-(trans-4-(dimethylamino)cyclohexyl)-2,4,9-trimethyl-7,8-dihydro-[1,3]dioxolo[4,5-g]isoquinolin-5(6H)-one], the GI50 in series [1] is 69 nM. The IC50 on EZH1 is greater than 1000 nM; on EZH2, 69 nM. Also, the “Residual amount (%) of test compound … Mouse” value in series [2] is reported as 63%. The “Residual amount (%) of test compound … Human” value in series [3] came to 53%.

Consider `Cc1cc(C)c(CN2CCc3c(Cl)c4c(c(C)c3C2=O)OC(C)([C@H]2CC[C@H](N3CCCC3)CC2)O4)c(=O)[nH]1` (stereo partly drawn) [Compound 18, 9-chloro-6-((4,6-dimethyl-2-oxo-1,2-dihydropyridin-3-yl)methyl)-2,4-dimethyl-2-(trans-4-(pyrrolidin-1-yl)cyclohexyl)-7,8-dihydro-[1,3]dioxolo[4,5-g]isoquinolin-5(6H)-one], for which the GI50 in series [1] (setting [4]) was 16 nM. Besides, the IC50 stood at 47 nM against EZH1 and 4.3 nM against EZH2.

As for `Cc1cc(C)c(CN2CCc3c(Cl)c4c(c(C)c3C2=O)OC(C)(C[C@H]2CC[C@H](N)CC2)O4)c(=O)[nH]1` (some centres unmarked) [Compound 20], in series [1] (setting [4]), the GI50 was 18 nM. Further, the values for the IC50 on EZH1 and against EZH2 were 48 nM and 3.7 nM, respectively.

Turning to `Cc1cc(C)c(CN2CCc3c(Cl)c4c(c(C)c3C2=O)OC(C)(C[C@H]2CC[C@H](N(C)C)CC2)O4)c(=O)[nH]1` (stereo partly drawn) [Compound 21, 9-chloro-6-((4,6-dimethyl-2-oxo-1,2-dihydropyridin-3-yl)methyl)-2-((trans-4-(dimethylamino)cyclohexyl)methyl)-2,4-dimethyl-7,8-dihydro-[1,3]dioxolo[4,5-g]isoquinolin-5(6H)-one], the GI50 in series [1] (setting [4]) was found to be 75 nM. The figures for the IC50 on EZH1 and against EZH2 were 137 nM and 7.2 nM, respectively.

Take `Cc1cc(C)c(CN2CCc3c(Cl)c4c(c(C)c3C2=O)OC(C)(C2CCCCC2)O4)c(=O)[nH]1` (centres unmarked) [Compound 22, 9-chloro-2-cyclohexyl-6-((4,6-dimethyl-2-oxo-1,2-dihydropyridin-3-yl)methyl)-2,4-dimethyl-7,8-dihydro-[1,3]dioxolo[4,5-g]isoquinolin-5(6H)-one]: the concentration for 50% growth inhibition (GI50) in series [1] (setting [4]) was greater than 1000 nM. Moreover, the IC50 against EZH1 turned out to be 180 nM; against EZH2, 16 nM.

As for `Cc1cc(C)c(CN2CCc3c(Cl)c4c(c(C)c3C2=O)OC(C)(C2CCOCC2)O4)c(=O)[nH]1` (centres unmarked) [Compound 24, 9-chloro-6-((4,6-dimethyl-2-oxo-1,2-dihydropyridin-3-yl)methyl)-2,4-dimethyl-2-(tetrahydro-2H-pyran-4-yl)-7,8-dihydro-[1,3]dioxolo[4,5-g]isoquinolin-5(6H)-one], the GI50 in series [1] (setting [4]) amounted to 62 nM. Besides, the IC50 on EZH1 was determined as 34 nM; on EZH2 it was 3 nM.

For `Cc1cc(C)c(CN2CCc3c(Cl)c4c(c(C)c3C2=O)OC(C)(CCCCN(C)C)O4)c(=O)[nH]1` (centres unmarked) [Compound 26, 9-chloro-6-((4,6-dimethyl-2-oxo-1,2-dihydropyridin-3-yl)methyl)-2-(4-(dimethylamino)butyl)-2,4-dimethyl-7,8-dihydro-[1,3]dioxolo[4,5-g]isoquinolin-5(6H)-one], in series [1] (setting [4]), the GI50 was determined as 99 nM. The IC50 on EZH1 stood at 85 nM; at EZH2, 6.2 nM.

Turning to `Cc1cc(C)c(CN2CCc3c(Cl)c4c(c(C)c3C2=O)OC(C)(C2CCNCC2)O4)c(=O)[nH]1` (centres unmarked) [Compound 28, 9-chloro-6-((4,6-dimethyl-2-oxo-1,2-dihydropyridin-3-yl)methyl)-2,4-dimethyl-2-(piperidin-4-yl)-7,8-dihydro-[1,3]dioxolo[4,5-g]isoquinolin-5(6H)-one], in series [1] (setting [4]), the GI50 was found to be 14 nM. The IC50 on EZH1 stood at 55 nM; at EZH2 it was 3.2 nM.

For the molecule `Cc1cc(C)c(CN2CCc3c(Cl)c4c(c(C)c3C2=O)OC(C)(C2CCN(C)CC2)O4)c(=O)[nH]1` (centres unmarked) [Compound 29, 9-chloro-6-((4,6-dimethyl-2-oxo-1,2-dihydropyridin-3-yl)methyl)-2,4-dimethyl-2-(1-methylpiperidin-4-yl)-7,8-dihydro-[1,3]dioxolo[4,5-g]isoquinolin-5(6H)-one], the GI50 in series [1] (setting [4]) was found to be 51 nM. Also, the IC50 on EZH1 was found to be 136 nM; against EZH2, 5 nM.

As to `CC[C@@H](O)C(=O)N1CCC(C2(C)Oc3c(C)c4c(c(Cl)c3O2)CCN(Cc2c(C)cc(C)[nH]c2=O)C4=O)CC1` (stereo partly drawn) [Compound 30, 9-chloro-6-((4,6-dimethyl-2-oxo-1,2-dihydropyridin-3-yl)methyl)-2-(1-((R)-2-hydroxybutanoyl)piperidin-4-yl)-2,4-dimethyl-7,8-dihydro-[1,3]dioxolo[4,5-g]isoquinolin-5(6H)-one], in series [1] (setting [4]), the 50% growth inhibitory concentration (GI50) worked out at 307 nM. For the same molecule, the IC50 is 190 nM at EZH1 and 3.4 nM on EZH2.

In the case of `Cc1cc(C)c(CN2CCc3c(Cl)c4c(c(C)c3C2=O)OC(C)(C2CCN(CC(F)(F)F)CC2)O4)c(=O)[nH]1` (centres unmarked) [Compound 31, 9-chloro-6-((4,6-dimethyl-2-oxo-1,2-dihydropyridin-3-yl)methyl)-2,4-dimethyl-2-(1-(2,2,2-trifluoroethyl)piperidin-4-yl)-7,8-dihydro-[1,3]dioxolo[4,5-g]isoquinolin-5(6H)-one], the GI50 in series [1] (setting [4]) turned out to be 231 nM. The results for the IC50 on EZH1 and at EZH2 were 51 nM and 3.8 nM, respectively.

For `C=Cc1c2c(c(C)c3c1OC(C)([C@H]1CC[C@H](N(C)C)CC1)O3)C(=O)N(Cc1c(C)cc(C)[nH]c1=O)CC2` (stereo partly drawn) [Compound 52, 6-((4,6-dimethyl-2-oxo-1,2-dihydropyridin-3-yl)methyl)-2-(trans-4-(dimethylamino)cyclohexyl)-2,4-dimethyl-9-vinyl-7,8-dihydro-[1,3]dioxolo[4,5-g]isoquinolin-5(6H)-one], the GI50 in series [1] (setting [4]) lay in the range of 4.4 to 9.7 nM. Besides, the IC50 was in the range of 32 to 55 nM against EZH1 and 3.4 to 3.7 nM against EZH2. Moreover, the “Residual amount (%) of test compound … Mouse” value in series [2] is recorded as 61%. Moreover, the “Residual amount (%) of test compound … Human” value in series [3] is reported as 62%.

Turning to `Cc1cc(C)c(CN2CCc3c(c(C)c4c(c3C3CC3)OC(C)([C@H]3CC[C@H](N(C)C)CC3)O4)C2=O)c(=O)[nH]1` (stereo partly drawn) [Compound 54, 9-cyclopropyl-6-((4,6-dimethyl-2-oxo-1,2-dihydropyridin-3-yl)methyl)-2-(trans-4-(dimethylamino)cyclohexyl)-2,4-dimethyl-7,8-dihydro-[1,3]dioxolo[4,5-g]isoquinolin-5(6H)-one], in series [1] (setting [4]), the GI50 is 19 nM. For the same molecule, the IC50 against EZH1 is 41 nM; at EZH2, 6.4 nM.

Take `Cc1cc(C)c(CN2CCc3c(C#N)c4c(c(C)c3C2=O)OC(C)([C@H]2CC[C@H](N(C)C)CC2)O4)c(=O)[nH]1` (stereo partly drawn) [Compound 69, 6-((4,6-dimethyl-2-oxo-1,2-dihydropyridin-3-yl)methyl)-2-(trans-4-(dimethylamino)cyclohexyl)-2,4-dimethyl-5-oxo-5,6,7,8-tetrahydro-[1,3]dioxolo[4,5-g]isoquinolin-9-carbonitrile]: in series [1] (setting [4]), the GI50 came out at 10 nM. Besides, the IC50 was 65 nM against EZH1 and 2.7 nM at EZH2.
